Laboratory results published in patent publication US20230117034A1, “PYRAZOLOTRIAZINES” (Bayer Aktiengesellschaft, priority 2019, published 2023).
Where two headings read alike, the source gives them in different places.

Experiments:
CDK2/CycE = molecular target: T1, CDK2/CycE (Homo sapiens, UniProt P24941); experiment: CDK2/CycE kinase assay (TR-FRET, 2 mM ATP); type: biochemical; conditions: 2 mM ATP (high ATP); median; read-out: CDK2/CyclinE, 2 mM ATP (high ATP), IC50 (median)
T1 construct: purchased ProQinase GmbH (Freiburg, Germany); host or cells: insect cells (Sf9)
Summary of the method: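 Biotin-peptide phosphorylation (0.75 µM substrate, 2 mM ATP final, 25 min, 22 °C) by Sf9-expressed GST-CDK2/GST-CycE, after a 15-min compound pre-binding step. Inhibition scaled between enzyme-free (100%) and uninhibited (0%) wells.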

[1] = test system: BRCA1 mRNA expression in MDA-MB-231 cells; experiment: qRT-PCR assay: BRCA1 mRNA expression in MDA-MB-231; type: cell-based, human; conditions: Homo sapiens, MDA-MB-231, Inhibition of BRCA1 mRNA expression in MDA-MB-231 cells; median; read-out: RTqPCR-MDA-MB-231, IC50, BRCA1 (median)
Summary of the method: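 Seed 200,000 cells/well; 24 h later add compound, continuous exposure 24 h; extract RNA, 600 ng to cDNA; RT-qPCR, normalised to GAPDH.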

[2] = test system: MDA-MB-231, human breast cancer cells; experiment: Proliferation assay MDA-MB-231 (crystal violet, 4 days); type: cell-based; conditions: MDA-MB-231 cells, median, read-out: Prolif-MDA MB-231, IC50-[mol/l] (median)
Summary of the method: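 IC50 from a 4-parameter fit of crystal violet absorbance (595 nm), scaled between a day-0 plate (0%) and untreated wells (100%). Cells grown in 10% FCS medium were exposed to test substances at 0.01-10 µmol/L for 4 days, 0.1% DMSO final.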

SMILES | IC50 (CDK2/CycE) [nM] | IC50 [1] [nM] | IC50 ([2]; Homo sapiens, MDA-MB-231, 96 h) [nM] | IC50 [2] [nM]
CCNC1CCN(c2nc(NCc3nc4ccccc4[nH]3)n3ncc(Br)c3n2)CC1 [Example 300] | > 19700 | 12.6 | 106 | –
Brc1cnn2c(NCc3nc4ccccc4[nH]3)nc(N3CC4CCNC4C3)nc12 (stereo not drawn) [Example 271, 2-(2,3,3a,4,6,6a-hexahydro-1H-pyrrolo[2,3-c]pyrrol-5-yl)-N-(1H-benzimidazol-2-ylmethyl)-8-bromo-pyrazolo[1,5-a][1,3,5]triazin-4-amine] | 10000 | 13.9 | 40 | –
CN1CCN(c2nc(NCc3nc4ccccc4[nH]3)n3ncc(C(F)(F)F)c3n2)CC1 [Example 297, N-[(1H-benzimidazol-2-yl)methyl]-2-(4-methylpiperazin-1-yl)-8-(trifluoromethyl)pyrazolo[1,5-a][1,3,5]triazin-4-amine] | 13300 | 51.5 | 77.7 | –
COc1cccc2[nH]c(CNc3nc(N4CCOCC4)nc4c(CC(F)(F)F)cnn34)nc12 [Example 277, N-[(4-methoxy-1H-benzimidazol-2-yl)methyl]-2-(morpholin-4-yl)-8-(2,2,2-trifluoroethyl)pyrazolo[1,5-a][1,3,5]triazin-4-amine] | > 20000 | 5.42 | 40.2 | –
Brc1cnn2c(NCc3ncc(-c4ccccc4)[nH]3)nc(N3CCOCC3)nc12 [Example 23, 8-bromo-2-(morpholin-4-yl)-N-[(5-phenyl-1H-imidazol-2-yl)methyl]pyrazolo[1,5-a][1,3,5]triazin-4-amine] | 1410 | 3.83 | 33.9 | –
Fc1ccc2[nH]c(CNc3nc(N4CCOCC4)nc4c(C5CCOCC5)cnn34)nc2c1F [Example 276, N-[(4,5-difluoro-1H-benzimidazol-2-yl)methyl]-2-(morpholin-4-yl)-8-(oxan-4-yl)pyrazolo[1,5-a][1,3,5]triazin-4-amine] | > 20000 | – | 258 | –
NC1(C(F)(F)F)CCN(c2nc(NCc3nc4ccccc4[nH]3)n3ncc(Br)c3n2)C1 (stereo not drawn) [Example 266, 2-[3-amino-3-(trifluoromethyl)pyrrolidin-1-yl]-N-(1H-benzimidazol-2-ylmethyl)-8-bromo-pyrazolo[1,5-a][1,3,5]triazin-4-amine] | 2100 | – | 133 | –
Fc1ccc2[nH]c(CNc3nc(N4CCOCC4)nc4c(C5CC5(F)F)cnn34)nc2c1 (single isomer, unassigned) [Example 314, 8-[(1R or S)-2,2-difluorocyclopropyl]-N-[(5-fluoro-1H-benzimidazol-2-yl)methyl]-2-(morpholin-4-yl)pyrazolo[1,5-a][1,3,5]triazin-4-amine] | > 20000 | 35.7 | 31.3 | –
Brc1cnn2c(NCc3nc4ccccc4[nH]3)nc(N3C[C@@H]4C[C@H]3CN4)nc12 [Example 270, N-[(1H-benzimidazol-2-yl)methyl]-8-bromo-2-[(1S,4S)-2,5-diazabicyclo[2.2.1]heptan-2-yl]pyrazolo[1,5-a][1,3,5]triazin-4-amine] | 1790 | 6.41 | 22.5 | –
CC1CN(C)CCN1c1nc(NCc2nc3ccccc3[nH]2)n2ncc(Br)c2n1 (single isomer, unassigned; enantiomer 1) [Example 260, N-(1H-benzimidazol-2-ylmethyl)-8-bromo-2-[(2R or S)-2,4-dimethylpiperazin-1-yl]pyrazolo[1,5-a][1,3,5]triazin-4-amine (Enantiomer 1)] | 2980 | 3.42 | – | 13.4
CC(C)CNc1nc(NCc2nc3ccccc3[nH]2)n2ncc(Br)c2n1 [Example 285, N^4-[(1H-benzimidazol-2-yl)methyl]-8-bromo-N^2-(2-methylpropyl)pyrazolo[1,5-a][1,3,5]triazine-2,4-diamine] | 2550 | – | 90.6 | –
Fc1ccc2[nH]c(CNc3nc(N4CCOCC4)nc4c(C5CCCC5)cnn34)nc2c1F [Example 262, 8-cyclopentyl-N-[(4,5-difluoro-1H-benzimidazol-2-yl)methyl]-2-(morpholin-4-yl)pyrazolo[1,5-a][1,3,5]triazin-4-amine] | > 20000 | – | 101 | –
Brc1cnn2c(NCc3nc4ccccc4[nH]3)nc(N3C[C@H]4CN[C@H]4C3)nc12.O=C(O)C(F)(F)F [Example 255, trifluoroacetic acid-N-[(1H-benzimidazol-2-yl)methyl]-8-bromo-2-[(1R,5R)-3,6-diazabicyclo[3.2.0]heptan-3-yl]pyrazolo[1,5-a][1,3,5]triazin-4-amine (1/1)] | > 20000 | – | 61 | –
OCC1CN(c2nc(NCc3nc4ccccc4[nH]3)n3ncc(Br)c3n2)C1 [Example 304, [1-(4-{[(1H-benzimidazol-2-yl)methyl]amino}-8-bromopyrazolo[1,5-a][1,3,5]triazin-2-yl)azetidin-3-yl]methanol] | 8430 | – | 299 | –
FC(F)(F)Cc1cnn2c(NCc3nc4ccccc4[nH]3)nc(N3CCOCC3)nc12.O=CO [Example 265, formic acid-N-[(1H-benzimidazol-2-yl)methyl]-2-(morpholin-4-yl)-8-(2,2,2-trifluoroethyl)pyrazolo[1,5-a][1,3,5]triazin-4-amine (1/1)] | > 20000 | – | 106 | –
Fc1ccc2[nH]c(CNc3nc(N4CCOCC4)nc4c(C(F)(F)F)cnn34)nc2c1 [Example 273, N-[(5-fluoro-1H-benzimidazol-2-yl)methyl]-2-(morpholin-4-yl)-8-(trifluoromethyl)pyrazolo[1,5-a][1,3,5]triazin-4-amine] | – | 1.95 | 6 | –
c1ccc2[nH]c(CNc3nc(N4CCOCC4)nc4c(C5CCCC5)cnn34)nc2c1 [Example 244, N-[(1H-benzimidazol-2-yl)methyl]-8-cyclopentyl-2-(morpholin-4-yl)pyrazolo[1,5-a][1,3,5]triazin-4-amine] | > 20000 | – | 501 | –
CC1CN(C)CCN1c1nc(NCc2nc3ccccc3[nH]2)n2ncc(Br)c2n1 (single isomer, unassigned; enantiomer 2) [Example 261, N-(1H-benzimidazol-2-ylmethyl)-8-bromo-2-[(2R or S)-2,4-dimethylpiperazin-1-yl]pyrazolo[1,5-a][1,3,5]triazin-4-amine (Enantiomer 2)] | 7290 | – | – | 99.9
CN1CCN(c2nc(NCc3nc4c(F)cccc4[nH]3)n3ncc(C(F)(F)F)c3n2)CC1 [Example 293, N-[(4-fluoro-1H-benzimidazol-2-yl)methyl]-2-(4-methylpiperazin-1-yl)-8-(trifluoromethyl)pyrazolo[1,5-a][1,3,5]triazin-4-amine] | – | 5.68 | 36.1 | –
Brc1cnn2c(NCc3nc4ccccc4[nH]3)nc(N3C[C@@H]4CN[C@@H]4C3)nc12.O=C(O)C(F)(F)F [Example 267, trifluoroacetic acid-N-[(1H-benzimidazol-2-yl)methyl]-8-bromo-2-[(1S,5S)-3,6-diazabicyclo[3.2.0]heptan-3-yl]pyrazolo[1,5-a][1,3,5]triazin-4-amine (1/1)] | 16100 | – | 107 | –
CC1(O)CCN(c2nc(NCc3nc4ccccc4[nH]3)n3ncc(Br)c3n2)C1 (single isomer, unassigned) [Example 282, (3R or S)-1-(4-{[(1H-benzimidazol-2-yl)methyl]amino}-8-bromopyrazolo[1,5-a][1,3,5]triazin-2-yl)-3-methylpyrrolidin-3-ol] | 10200 | – | 178 | –
Brc1cnn2c(NCc3nc4cccnc4[nH]3)nc(N3CCNCC3)nc12.O=CO [Example 19, 8-bromo-N-[(3H-imidazo[4,5-b]pyridin-2-yl)methyl]-2-(piperazin-1-yl)pyrazolo[1,5-a][1,3,5]triazin-4-amine formic acid salt] | 11400 | – | – | –
CN1CCN(c2nc(NCc3nc4ccccc4[nH]3)n3ncc(Br)c3n2)C(CO)C1 (single isomer, unassigned) [Example 280, [(2R or S)-1-(4-{[(1H-benzimidazol-2-yl)methyl]amino}-8-bromopyrazolo[1,5-a][1,3,5]triazin-2-yl)-4-methylpiperazin-2-yl]methanol] | 17400 | – | 231 | –
Fc1ccc2[nH]c(CNc3nc(N4CCOCC4)nc4c(Br)cnn34)nc2c1F [Example 25, 8-bromo-N-[(4,5-difluoro-1H-benzimidazol-2-yl)methyl]-2-(morpholin-4-yl)pyrazolo[1,5-a][1,3,5]triazin-4-amine] | 4560 | 3.01 | – | –
C[C@@]1(O)CCN(c2nc(NCc3nc4ccccc4[nH]3)n3ncc(Br)c3n2)C1 (single isomer, unassigned) [Example 281, (3R or S)-1-(4-{[(1H-benzimidazol-2-yl)methyl]amino}-8-bromopyrazolo[1,5-a][1,3,5]triazin-2-yl)-3-methylpyrrolidin-3-ol] | 3280 | – | 306 | –
